Earlier results, collected in patent US20260097052A1, “NOVEL ORAL CANNABINOID FORMULATIONS” (Esolate Pharmaceuticals Ltd, priority 2023, published 2026).

Details: humans

C=C(C)[C@@H]1CCC(C)=C[C@H]1c1c(O)cc(CCCCC)cc1O [CBD, cannabidiol]
Oral bioavailability: approximately 6%
